# In publication PMC11579541, “In vitro, in vivo, and in silico approaches for evaluating the preclinical DMPK profiles of ammoxetine, a novel chiral serotonin and norepinephrine reuptake inhibitor” (Frontiers in Pharmacology, 2024):
# Where two headings read alike, the source gives them in different places.
# Legend:
# [1] = Hepatic microsome stability assay, RLM; assay type: in vitro ADME, rat; settings: rat, liver microsomes, pH 7.4; 1 μmol/L, 0.2 g/L microsomes, NADPH
# Description: (§1) A hepatic microsome stability assay was conducted to investigate the metabolic disposition of ammoxetine. In this assay, 100 μL of ammoxetine (2.5 μmol/L) was incubated at 37°C with 100 μL of liver microsomes (RLM, DLM, MLM, or HLM) formulated in a 5 mmol/L dipotassium hydrogen phosphate (K2HPO4) buffer at pH 7.4. The concentration of microsomes was 0.5 g/L. To initiate the incubations, 50 μL of NADPH solution preincubated at 37°C was added. […] Parallel triplicate samples were prepared for each time point, including 0, 2, 5, 10, 15, 30, 60, 90, and 120 min. To stop the reactions at each time point, 250 μL of ice-cold precipitating agent (acetonitrile/methanol, 1:1, v/v) containing 500 ng/mL of L-phencynonate (IS) was added to the incubation mixture. The samples were vortexed for 2 min at 4°C and then centrifuged at 13,800×g for 10 min. The supernatants were analyzed using an LC-MS-MS approach. […]
# (§2) In Formula 3, t1/2 (min) represents the half-life of ammoxetine in liver microsomes. It is calculated by dividing −0.693 by the resulting slope (k e) obtained from a natural logarithm plot of the remaining concentration of ammoxetine against incubation time. […]
# [2] = tested on: RLM; experiment: Hepatic microsome stability assay, RLM; assay type: in vitro ADME, rat; settings: predicted hepatic clearance
# Description: as §1, §2
# [3] = PPB assay by ultrafiltration, rat plasma; assay type: in vitro ADME, rats
# Description: The PPB of ammoxetine was determined using the ultrafiltration method. Triplicate samples of rat, dog, or human plasma were spiked with ammoxetine at three final concentrations (50, 150, and 450 ng/mL). The spiked plasma samples were then incubated in a 37°C air-bath shaker for 1 h until equilibrium was reached. After incubation, 400 μL of the plasma samples were transferred to pre-saturated ultrafiltration devices. These devices were subsequently centrifuged at 13,800×g and 20°C for 20 min to separate the unbound ammoxetine. 100 μL of the test samples were taken and mixed with 100 μL of the IS, L-phencynonate (50 ng/mL), and 300 μL of methanol. Following centrifugation at 13,800×g for 10 min, the supernatants were used to determine the total and free concentrations of ammoxetine in the plasma (C t , C f ) using an LC-MS-MS method. The PPB rate (%) of ammoxetine was calculated by dividing (C t −C f ) by C t .
# [4] = Tissue distribution study in rats; assay type: in vivo; settings: 20 mg/kg oral; for Tmax: read-out: time of peak concentration in tissue; for Kp: po, 20 mg/kg, read-out: AUC(0→t),tissue/AUC(0→t),blood
# Description: A total of 24 rats were divided equally into four groups, with each group receiving a single oral gavage dose of 20 mg/kg of ammoxetine. Based on the rat PK analysis results for the 20 mg/kg dose, specific time points were selected for sampling, including before, at, and after the peak of ammoxetine plasma concentration (i.e., 0.25, 2, 6, and 24 h, respectively). At each designated time point after drug administration, the rats were euthanized, and approximately 1 mL of blood samples were collected into heparinized tubes. The heart, liver, spleen, lung, kidney, brain, intestine, stomach, testis, fat, and muscle tissues were rapidly removed after washing out the blood with ice-cold saline. The blood samples were then centrifuged at 6,000 r/min for 15 min to obtain plasma. The collected tissue samples were weighed and homogenized in distilled water to create a 10% homogenate. For further analysis, 100 μL of plasma or tissue homogenate samples were mixed with 300 μL of methanol and 100 μL of L-phencynonate (IS, 50 ng/mL). The mixture was vortexed for 1 min and then centrifuged at 13,800×g for 10 min. The resulting supernatants were used for LC-MS-MS analysis. Using the trapezoidal method, the tissue-to-blood AUC ratio ( AUC0→t,tissue/AUC0→t,blood ) was calculated based on the obtained AUC values. This ratio allowed for the comparison of differential tissue distribution of ammoxetine in rats.
# [5] = parameters: method as in Xue et al., 2017; settings: citric acid/phosphate buffer (pH 2); ref Xue et al., 2017; cited from earlier work
smiles,measurement,setting,value
CNCC[C@H](Oc1cccc2c1OCO2)c1cccs1 [ammoxetine],half-life at 1 μmol/L,[1],0.213 ± 0.0165 h
same,CL h,[2],49.58 ± 0.39 mL/min/kg
same,"fraction unbound at 1 h, 50 ng/mL","[3]; 50 ng/mL, read-out: Percentage of ammoxetine-protein binding rate (%) (converted)",0.338
same,"fraction unbound at 1 h, 150 ng/mL","[3]; 150 ng/mL, read-out: Percentage of ammoxetine-protein binding rate (%) (converted)",0.447
same,"fraction unbound at 1 h, 450 ng/mL","[3]; 450 ng/mL, read-out: Percentage of ammoxetine-protein binding rate (%) (converted)",0.506
same,fraction unbound at 1 h,"[3]; approximate range over 50-450 ng/mL, read-out: PPB rate",0.4 to 0.5
same,"Plasma exposure as share of total systemic exposure (AUC0→t,blood/AUC0→t,total)",[4],approximately 0.186%
same,AUC(0→t),[4]; brain,"60,541.26 ± 19,438.07 ng/g·h"
same,AUC(0→t),[4]; fat,"38,592.32 ± 24,498.69 ng/g·h"
same,AUC(0→t),[4]; heart,"44,743.11 ± 11,086.06 ng/g·h"
same,AUC(0→t),[4]; intestine,"190,710.5 ± 52,982.23 ng/g·h"
same,AUC(0→t),[4]; kidney,"98,000.01 ± 25,400.16 ng/g·h"
same,AUC(0→t),[4]; liver,"208,081.20 ± 64,872.68 ng/g·h"
same,AUC(0→t),[4]; lung,"393,670.80 ± 31,407.40 ng/g·h"
same,AUC(0→t),[4]; muscle,"24,154.50 ± 6,583.59 ng/g·h"
same,AUC(0→t),[4]; spleen,"117,673.30 ± 31,479.36 ng/g·h"
same,AUC(0→t),[4]; stomach,"118,279.40 ± 37,565.21 ng/g·h"
same,AUC(0→t),[4]; testis,"69,347.84 ± 13,459.91 ng/g·h"
same,Tmax,"[4]; rat, heart, spleen, lung, kidney, brain, fat and muscle",2 h
same,Tmax,"[4]; rat, testis",6 h
same,Kp,"[4]; rat, brain, brain",~23.3
same,Kp,"[4]; rat, fat, fat",14.2 ± 7.84
same,Kp,"[4]; rat, heart, heart",17.1 ± 3.3
same,Kp,"[4]; rat, intestine, intestine",75.6 ± 28.2
same,Kp,"[4]; rat, kidney, kidney",37.7 ± 8.18
same,Kp,"[4]; rat, liver, liver",81.4 ± 26.8
same,Kp,"[4]; rat, lung, lung",155 ± 34.7
same,Kp,"[4]; rat, muscle, muscle",9.31 ± 2.29
same,AUC(0-t),"[4]; rat, plasma, blood",2620 ng·h/mL
same,Kp,"[4]; rat, spleen, spleen",46 ± 14.2
same,Kp,"[4]; rat, stomach, stomach",48.8 ± 27.6
same,Kp,"[4]; rat, testis, testis",27.3 ± 8.12
same,stability in buffer,[5],instability
